Laboratory results from US20260174878A1, “IRAK4 DEGRADATION AGENT AND USE THEREOF” (LEADINGTAC PHARMACEUTICAL (SHAOXING) CO., LTD., priority 2022, published 2026).

Experiments:
IRAK4 kinase = target: T1, IRAK4 kinase (Homo sapiens, UniProt Q9NWZ3); assay: IRAK4 kinase activity test (KinEASE-STK S1 HTRF kit); type: biochemical; conditions: IRAK4 kinase 2.5 nM, 7 μM adenosine triphosphate, 37° C. 120 min
T1 construct: purchased Carna
T1 sequence (Q9NWZ3 1-460): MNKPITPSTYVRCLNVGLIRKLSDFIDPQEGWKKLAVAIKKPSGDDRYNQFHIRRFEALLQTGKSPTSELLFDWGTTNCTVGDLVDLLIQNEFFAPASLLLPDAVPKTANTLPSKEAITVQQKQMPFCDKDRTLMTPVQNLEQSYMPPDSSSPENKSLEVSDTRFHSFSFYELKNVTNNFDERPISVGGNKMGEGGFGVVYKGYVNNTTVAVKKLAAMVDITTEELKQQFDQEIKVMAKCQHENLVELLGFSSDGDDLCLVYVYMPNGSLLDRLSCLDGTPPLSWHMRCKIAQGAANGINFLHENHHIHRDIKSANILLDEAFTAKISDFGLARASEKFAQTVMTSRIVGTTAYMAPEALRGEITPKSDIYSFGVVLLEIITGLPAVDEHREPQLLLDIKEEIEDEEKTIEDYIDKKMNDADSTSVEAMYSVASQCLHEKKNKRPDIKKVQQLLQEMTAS
Description: Then 2.5 nM IRAK4 kinase (Carna), 1 μM biotinylated polypeptide substrate (Cisbio), and 7 μM adenosine triphosphate (Sigma-Aldrich) were sequentially added, and the mixtures were incubated at 37° C. for 120 min. Subsequently, an anti-phosphoserine/threonine antibody (Cisbio) conjugated with a europium element compound and streptavidin conjugated with a modified XL665 (Cisbio) were added to the reaction system to stop the reaction. After 1 h of incubation at room temperature, the fluorescence intensity of each well was measured at the excitation wavelength of 337 nm and the emission wavelengths of 620 nm and 665 nm with a microplate reader EnVision (PerkinElmer) in the HTRF mode, and Ratio values were calculated using the formula: Ratio=(665 nm/620 nm)×10^4. The inhibition rates of the compounds at each concentration were calculated by comparison with the fluorescence intensity ratio of the control group. Then non-linear curve fittings for logarithmic concentration-inhibition rate were performed using GraphPad Prism 7, and the IC50 values of the compounds were obtained.

[1] = target: T2, IRAK4 protein in normal human PBMCs (Homo sapiens, UniProt Q9NWZ3); assay: Degradation of IRAK4 protein in normal human PBMCs (AlphaLISA); type: cell-based; conditions: 24 h incubation
T2 construct: host or cells: normal human PBMCs
T2 sequence (Q9NWZ3 1-460): T1 sequence (Q9NWZ3 1-460)
Description: The cryopreserved normal human PBMCs (Milestone, PB010C) were thawed and resuspended in RPMI 1640 medium (Gibco, A1049101) supplemented with 10% fetal bovine serum (Gibco, 10099141), 100 U/mL penicillin, and 100 µg/mL streptomycin (Gibco, 15140122). After 0.95 mL of cells were plated in each well of a 24-well cell culture plate, 50 µL of diluted compound solution was added to corresponding wells with cells, such that the final concentration of the compound fell within the range of 0.01-3000 nM. The final concentration of DMSO was 0.25%. After the compound-treated cell plate was incubated in an incubator at 37° C. with 5% CO2 for 24 h, the cells were collected into 1.5 mL centrifuge tubes and centrifuged at 1000 rpm at 4° C. for 5 min. The cell pellets were washed twice with 1×DPBS. The resuspended cells were lysed with 100 μL of lysis buffer, left to stand on ice for 30 min, and then centrifuged at 14000 g at 4° C. for 10 min. The samples of the cell lysate supernatant after centrifugation were cryopreserved at −80° C. before testing. The cell lysis buffer was a Western and IP cell lysis buffer (Beyotime, P0013) supplemented with 1 mM phenylmethylsulfonyl fluoride and a protease inhibitor cocktail (Beyotime, P1008).
The total protein concentrations of the cell lysate samples were determined using a BCA protein quantification kit (Tiangen, PA115-02).
The prepared PBMC lysate samples were assayed for IRAK4 concentrations using a human IRAK4 AlphaLISA assay kit (PerkinElmer, AL3117C) to determine the degradation effects of the compounds on IRAK4. The method is as follows:
5 μL of each of IRAK4 standard solutions with different concentrations and test samples of cell lysate supernatant were added to a white 384-well plate (PerkinElmer, 6007299), and then 10 μL of 5× anti-IRAK4 […] beads was added to each well (final concentration of 10 μg/mL). The plate was incubated at room temperature for 30 min. Then 10 μL of 5× biotin-labeled anti-IRAK4 antibody was added to each well (final concentration of 1 nM), and the plate was incubated at room temperature for another 60 min. Finally, 25 μL of 2× streptavidin-labeled donor beads was added to each well (final concentration of 40 μg/mL), and the plate was incubated at room temperature for another 30 min. After the incubation was completed, AlphaLISA signal values were measured on a microplate reader EnVision (PerkinElmer, 2105) in the AlphaScreen standard mode. A standard curve was plotted from the AlphaLISA signal values of the IRAK4 standard solutions with different concentrations, and the IRAK4 concentration of each cell lysate supernatant was determined according to the corresponding concentrations on the standard curve for the AlphaLISA signal values of the test samples and by performing corresponding correction on the total protein concentration of each sample obtained by BCA quantification. The degradation rates for the compounds at each concentration were calculated by comparing the IRAK4 concentration with that of the control group. Then non-linear curve fittings for logarithmic concentration-inhibition rate were performed using GraphPad Prism 8, and the DC50 and Dmax values of the compound were obtained.

Row | Structure (SMILES) | IC50 (IRAK4 kinase) | DC50 [1] | Dmax [1]
1 | CN(CCC1CCN(C(=O)c2ccc(F)c(C3CCC(=O)NC3=O)c2)CC1)C(=O)[C@H]1CC[C@H](n2cc(NC(=O)c3cnn4ccc(N5CCOCC5)nc34)c(C(F)F)n2)CC1 (stereo partly drawn) [Example 17] | 9.82 nM | 0.92 nM | 98.9%
2 | O=C1CCN(c2cc(C(=O)N3CCC4(CCN(C[C@H]5CC[C@H](n6cc(NC(=O)c7cnn8ccc(N9CC%10(COC%10)C9)nc78)c(C(F)F)n6)CC5)CC4)CC3)ccc2Cl)C(=O)N1 [Example 19, N-(1-((1R,4R)-4-((9-(4-chloro-3-(2,4-dioxotetrahydropyrimidin-1(2H)-yl)benzoyl)-3,9-diazaspiro[5.5]undecan-3-yl)methyl)cyclohexyl)-3-(difluoromethyl)-1H-pyrazol-4-yl)-5-(2-oxa-6-azaspiro[3.3]heptan-6-yl)pyrazolo[1,5-a]pyrimidine-3-carboxamide] | 36.1 nM | 0.47 nM | 98%
3 | COc1cc2nn([C@H]3CC[C@](O)(COCCC4CCN(C(=O)c5ccc(Cl)c(N6CCC(=O)NC6=O)c5)CC4)CC3)cc2cc1NC(=O)c1cccc(C(F)(F)F)n1 [Example 34] | 12.9 nM | 1.32 nM | 99.1%
4 | COc1cc2nn([C@H]3CC[C@](O)(CN(C)CC4CCC5(CC4)CCN(C(=O)c4ccc(Cl)c(N6CCC(=O)NC6=O)c4)CC5)CC3)cc2cc1NC(=O)c1cccc(C(F)(F)F)n1 [Example 35] | 15.1 nM | 0.65 nM | 99.7%
5 | O=C1CCN(c2cc(C(=O)N3CCC4(CCN(C[C@H]5CC[C@H](n6cc(NC(=O)c7cnn8ccc(N9CCOCC9)nc78)c(C(F)F)n6)CC5)CC4)CC3)ccc2Cl)C(=O)N1 [Example 8, N-(1-((1R,4R)-4-((9-(4-chloro-3-(2,4-dioxotetrahydropyrimidin-1(2H)-yl)benzoyl)-3,9-diazaspiro [5.5]undecan-3-yl)methyl)cyclohexyl)-3-(difluoromethyl)-1H-pyrazol-4-yl)-5-morpholinopyrazolo[1,5-a]pyrimidine-3-carboxamide] | 17 nM | 0.8 nM | 99.1%
6 | COc1cc2nn([C@H]3CC[C@](O)(COCC4CCN(C(=O)c5ccc(Cl)c(N6CCC(=O)NC6=O)c5)CC4)CC3)cc2cc1NC(=O)c1cccc(C(F)(F)F)n1 [Example 33, N-(2-((1S,4S)-4-(((1-(4-chloro-3-(2,4-dioxotetrahydropyrimidin-1(2H)-yl)benzoyl)piperidin-4-yl)methoxy)methyl)-4-hydroxycyclohexyl)-6-methoxy-2H-indol-5-yl)-6-(trifluoromethyl)pyridinecarboxamide] | 10.6 nM | 1.58 nM | 98.6%

Stronger by IC50 (IRAK4 kinase), values ahead:

Row | IC50 (IRAK4 kinase) | DC50 [1] | Dmax [1] | Structure (SMILES)
7 | 9.29 nM | 2.03 nM | 98.6% | COc1cc2nn([C@H]3CC[C@@](COCCC4CCN(C(=O)c5ccc(Cl)c(N6CCC(=O)NC6=O)c5)CC4)(OC)CC3)cc2cc1NC(=O)c1cccc(C(F)(F)F)n1 [Example 36]
8 | 8.05 nM | 0.67 nM | 97.6% | CN(CCC1CCN(C(=O)c2ccc(Cl)c(N3CCC(=O)NC3=O)c2)CC1)C[C@H]1CC[C@H](n2cc(NC(=O)c3cnn4ccc(N5CC6CCC(C5)O6)nc34)c(C(F)F)n2)CC1 [Example 10, 5-(8-oxa-3-azabicyclo[3.2.1]octan-3-yl)-N-(1-((1R,4R)-4-(((2-(1-(4-chloro-3-(2,4-dioxotetrahydropyrimidin-1(2H)-yl)benzoyl)piperidin-4-yl)ethyl)(methyl)amino)methyl)cyclohexyl)-3-(difluoromethyl)-1H-pyrazol-4-yl)pyrazolo[1,5-a]pyrimidine-3-carboxamide]
9 | 7.86 nM | 0.77 nM | 99.5% | CN(CCC1CCN(C(=O)c2ccc(Cl)c(N3CCC(=O)NC3=O)c2)CC1)C[C@H]1CC[C@H](n2cc(NC(=O)c3cnn4ccc(N5CCC[C@H](N)C5)nc34)c(C(F)F)n2)CC1 [Example 18, 5-((S)-3-aminopiperidin-1-yl)-N-(1-((1R,4S)-4-(((2-(1-(4-chloro-3-(2,4-dioxotetrahydropyrimidin-1(2H)-yl)benzoyl)piperidin-4-yl)ethyl)(methyl)amino)methyl)cyclohexyl)-3-(difluoromethyl)-1H-pyrazol-4-yl)pyrazolo[1,5-a]pyrimidine-3-carboxamide]
10 | 7.74 nM | 0.88 nM | 97.4% | O=C1CCN(c2cc(C(=O)N3CCC4(CCN(C[C@H]5CC[C@H](n6cc(NC(=O)c7cnn8ccc(N9CC%10CCC(C9)O%10)nc78)c(C(F)F)n6)CC5)CC4)CC3)ccc2Cl)C(=O)N1 [Example 11, 5-(8-oxa-3-azabicyclo[3.2.1]octan-3-yl)-N-(1-((1R,4R)-4-((9-(4-chloro-3-(2,4-dioxotetrahydropyrimidin-1(2H)-yl)benzoyl)-3,9-diazaspiro[5.5]undecan-3-yl)methyl)cyclohexyl)-3-(difluoromethyl)-1H-pyrazol-4-yl)pyrazolo[1,5-a]pyrimidine-3-carboxamide]
11 | 4.64 nM | 0.39 nM | 98% | CN(CCC1CCN(C(=O)c2ccc(Cl)c(N3CCC(=O)NC3=O)c2)CC1)C[C@H]1CC[C@H](n2cc(NC(=O)c3cnn4ccc(N5CCOCC5)nc34)c(C(F)F)n2)CC1 [Example 9, N-(1-((1R,4R)-4-(((2-(1-(4-chloro-3-(2,4-dioxotetrahydropyrimidin-1(2H)-yl)benzoyl)piperidin-4-yl)ethyl)(methyl)amino)methyl)cyclohexyl)-3-(difluoromethyl)-1H-pyrazol-4-yl)-5-morpholinopyrazolo [1,5-a]pyrimidine-3-carboxamide]
12 | 3.86 nM | 1.49 nM | 98.8% | COc1ccc(C(=O)N2CCC(CCN(C)C[C@H]3CC[C@H](n4cc(NC(=O)c5cnn6ccc(N7CCC[C@H](N)C7)nc56)c(C(F)F)n4)CC3)CC2)cc1N1CCC(=O)NC1=O [Example 15, 5-((S)-3-aminopiperidin-1-yl)-N-(3-(difluoromethyl)-1-((1R,4S)-4-(((2-(1-(3-(2,4-dioxotetrahydropyrimidin-1(2H)-yl)-4-methoxybenzoyl)piperidin-4-yl)ethyl)(methyl)amino)methyl)cyclohexyl)-1H-pyrazol-4-yl)pyrazolo[1,5-a]pyrimidine-3-carboxamide]
13 | 3.36 nM | 0.27 nM | 98.2% | COc1ccc(C(=O)N2CCC(CCN(C)C[C@H]3CC[C@H](n4cc(NC(=O)c5cnn6ccc(N7CCC[C@H](O)C7)nc56)c(C(F)F)n4)CC3)CC2)cc1N1CCC(=O)NC1=O [Example 14, N-(3-(difluoromethyl)-1-((1R,4S)-4-(((2-(1-(3-(2,4-dioxotetrahydropyrimidin-1(2H)-yl)-4-methoxybenzoyl)piperidin-4-yl)ethyl)(methyl)amino)methyl)cyclohexyl)-1H-pyrazol-4-yl)-5-((S)-3-hydroxypiperidin-1-yl)pyrazolo[1,5-a]pyrimidine-3-carboxamide]
